We go through three compounds from patent US12064480B2, “Immunigenic alpha-branched trehalose-diesters” (GLAXOSMITHKLINE BIOLOGICALS SA, priority 2018, dated 2024).

Experiment [1] concerns mouse Raw cell line. The experiment is described as follows: Cytokine production (TNFα) from mouse Raw cells. The format is cell-based. The conditions noted are these: for TNFα potency in mouse cell line compared to human cells: mouse Raw cells vs human cells; for TNFα potency in mouse cell line compared to human cells / TNFα efficacy/peak levels relative to the other reference compounds / TNFα potency relative to sTDCM: FIG. 4A. The text has this:
The compounds were screened for their ability to induce TNFα from the mouse Raw cell line. An aim of this study was to determine if species specific differences in responses to compounds may be observed.

The test system of experiment [2] is human PBMCs. The experiment is described as follows: Cytokine production from human PBMCs (Luminex multiplex panel). The format is cell-based. The conditions noted are these: human cells. On the procedure:
TDM (trehalose-6,6′-dimycolate) was obtained from Sigma. TDB (6,6′-dibehenoyl-α,α′-trehalose) was obtained from Avanti Polar Lipids. MMG (glycerol monomycolate) was prepared according to the procedure of Andersen et. al. sTDCM (synthetic trehalose dicorynomycolate) was obtained from Sigma-Aldrich (Catalog Number S3452).
PBMCs were obtained via leukapheresis from normal donors (AllCells, Berkeley, CA). Upon receipt PBMCs were repeatedly washed in 1×PBS and cryopreserved in freezing media (50% RPMI, 40% FCS, 10% DMSO) for future use. For assay, cells were immediately thawed into RPMI media, 10% heat inactivated FBS, 1× penicillin/streptomycin/glutamine (complete media), washed once and resuspended to the desired cell concentration in complete media. Cells were treated with the indicated compound concentrations by addition to plates containing serial dilution of the stock compound in diluent (50% isopropanol/50% isooctane). Compounds were applied, 20 ul final volume, to the bottom of a tissue culture plate and solvent was allowed to fully evaporate (i.e. plate coating) before cell addition.
Supernatants were harvested from treated cells 18-24 h post cell application. Supernatants were analyzed using a Luminex multiplex panel for analytes TNFα, IL-1β, IL-6, IFNγ, IL-12p70 and IL-23 per the manufacturer's instructions.

As to trehalose-6,6′-dimycolate [TDM], the “TNFα potency in mouse cell line compared to human cells” value in experiment [1] is “more potent in the mouse cell line as compared to human cells”. In experiment [1] (mouse Raw cells), the “TNFα efficacy/peak levels relative to the other reference compounds” value is recorded as “higher efficacy/peak levels” and the “TNFα potency relative to sTDCM” value is given as “equivalent potency”.

For the compound `CCCCCCCCCCCCCCCCCCCCCC(=O)OC[C@H]1O[C@H](O[C@H]2O[C@H](COC(=O)CCCCCCCCCCCCCCCCCCCCC)[C@@H](O)[C@H](O)[C@H]2O)[C@H](O)[C@@H](O)[C@@H]1O` [TDB, 6,6′-dibehenoyl-α,α′-trehalose], the “TNFα potency in mouse cell line compared to human cells” value in experiment [1] is given as “more potent in the mouse cell line as compared to human cells”. In experiment [1] (mouse Raw cells), the “TNFα efficacy/peak levels relative to the other reference compounds” value is on record as “higher efficacy/peak levels” and the “TNFα potency relative to sTDCM” value was “equivalent potency”.

Regarding glycerol monomycolate [MMG], the “fold less potent than sTDCM” value in experiment [1] (mouse Raw cells, TNFα) is reported as “over 100 fold”. Further, the “TNFα induction (activity)” value in experiment [1] (mouse Raw cells, FIG. 4) was “some activity”. Moreover, in experiment [1] (mouse Raw cells), the “TNFα efficacy/peak levels relative to the other reference compounds” value was “equivalent levels”. Moreover, in experiment [2], the MMG/sTDCM potency difference is around 10 fold.
